US11371985B2, “Selection of agents modulating gastrointestinal pain” (BIOGAIA AB, priority 2014, dated 2022)
“And” between values parts separate entries of the source, which are not always exact repeats. Equal values may be shown once.

Tests used:
[1] = tested on: fibers presumed to be nociceptors; set-up: species or system Swiss Webster mice
[2] = biological target: T1, TRPV1 receptor (Mus musculus, UniProt Q704Y3); assay: Capsaicin-induced Ca2+ rise in DRG neuronal primary cultures (Fluo-4 Ca2+ imaging); assay type: cell-based; set-up: we used Ca^2+ imaging of DRG neuronal primary culture for these experiments; endogenous in cells; host or cells: primary dorsal root ganglion neurons (thoracolumbar levels)
Method: The spinal column was removed from the body, transferred to a beaker containing ice-cold Krebs, and bisected longitudinally. DRG were exposed and collected from the thoracolumbar levels. Whole DRG were washed twice with sterile Leibovitz's L-15 medium (GIBCO, Gaithersburg, Md.), and incubated for 40 min in collagenase type 1 at 1 mg/ml (Sigma-Aldrich; Oakville, ON, Canada) and 0.5 ml trypsin (0.25%, GIBCO) in 20 ml L-15 at 37° C. After further addition of 5 ml L-15 containing 10% fetal bovine serum (FBS, GIBCO), the ganglia were centrifuged for 5 min at 1,000 rpm, then washed twice with growth medium (L-15, containing 10% FBS, 1% Penicillin/Streptomycin/Glutamine, 1% HEPES and 1% Na Pyruvate). […]
DRG neurons were placed within a plexiglass recording dish and loaded with the Ca^2+ indicator Fluo-4-AM (8 μM) diluted in Krebs with 0.1% pluronic acid (in DMSO) at 37° C. for 60 min. […] Fluorescence intensity in individual neurons was recorded by Simple PCI 6 software (Compix Inc, Imaging systems, Sewickley, Pa.). […] Images, recorded at 0.9 frame/s, were stored on a local hard drive. Image files were analyzed off-line using Image J software (NIH, USA, http://imagej.nih.gov/ij). The increase in Fluo-4 Ca^2+ when applying capsaicin was measured as the ratio (F/F0) fluorescence intensity after capsaicin (F) divided by the intensity before capsaicin (F0). […]

[3] = biological target: T1, TRPV1 receptor; set-up: Segments of distal jejunum (˜2.5 cm) with attached mesenteric tissue were removed from freshly killed animals; from tissue; host or cells: mouse distal jejunum with attached mesenteric nerve bundle (ex vivo); species or system Swiss Webster mice

T1 sequence (Q704Y3 whole entry): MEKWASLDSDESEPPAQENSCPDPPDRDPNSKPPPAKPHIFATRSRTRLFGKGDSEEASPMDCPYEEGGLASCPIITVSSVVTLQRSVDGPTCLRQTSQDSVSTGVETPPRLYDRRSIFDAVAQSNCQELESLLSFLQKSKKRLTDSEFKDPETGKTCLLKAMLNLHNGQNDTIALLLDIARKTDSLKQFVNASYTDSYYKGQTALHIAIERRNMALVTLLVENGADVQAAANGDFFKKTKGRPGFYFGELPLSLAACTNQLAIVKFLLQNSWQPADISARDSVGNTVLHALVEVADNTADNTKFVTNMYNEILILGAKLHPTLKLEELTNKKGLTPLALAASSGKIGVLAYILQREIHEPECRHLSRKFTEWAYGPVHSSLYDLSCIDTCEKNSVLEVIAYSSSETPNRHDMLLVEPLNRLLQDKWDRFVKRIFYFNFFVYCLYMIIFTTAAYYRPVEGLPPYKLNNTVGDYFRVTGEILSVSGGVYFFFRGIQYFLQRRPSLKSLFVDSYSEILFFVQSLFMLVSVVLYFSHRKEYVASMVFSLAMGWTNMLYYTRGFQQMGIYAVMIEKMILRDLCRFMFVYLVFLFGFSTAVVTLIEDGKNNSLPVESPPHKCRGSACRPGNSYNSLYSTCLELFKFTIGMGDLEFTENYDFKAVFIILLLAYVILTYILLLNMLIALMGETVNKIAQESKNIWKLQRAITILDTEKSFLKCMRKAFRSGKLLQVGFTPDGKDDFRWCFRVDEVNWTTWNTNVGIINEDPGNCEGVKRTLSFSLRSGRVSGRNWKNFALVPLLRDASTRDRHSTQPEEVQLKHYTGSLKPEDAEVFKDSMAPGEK

SMILES | single-unit response to distension [1] | fluorescence rise ratio F/F0 evoked by capsaicin ([2]; 1 μM capsaicin alone (control group, N=14)) | time to increase in intracellular Ca2+ after puffing capsaicin ([2]; 1 μM capsaicin onto DRG neurons) | capsaicin-evoked excitation with intramural synaptic blockage ([3]; 1 μM capsaicin in presence of 500 nM each ω-Cg-GVIA and ω-Cg-MVIIC, n=12, P=0.947) | capsaicin-evoked excitation (firing frequency increase) ([3]; 1 μM capsaicin serosal, alone (control group), n=17) | maximal response (Top) obtained with capsaicin ([3]; capsaicin alone, increase in firing frequency above baseline) | onset latency of capsaicin-induced firing rate increase ([3]; capsaicin applied to serosal compartment) | Emax ([3]; read-out: maximal response (Top) obtained with capsaicin, capsaicin alone, increase in firing frequency above baseline) | EC50 ([3]; serosal capsaicin 100 nM-100 μM, vagotomized mice, three-parameter logistic fit, read-out: EC50 for capsaicin alone (increase in firing frequency))
COc1cc(CNC(=O)CCCCCC(C)C)c(I)cc1O [6-Iodonordihydrocapsaicin] | 2.23±0.50 Hz |  |  |  |  |  |  |  | 
COc1cc(CNC(=O)CCCC/C=C/C(C)C)ccc1O [capsaicin] |  | 2.36±0.31 | ~30 s | 219.1±72.6% | 187.5±42.9% and 187.5±43% | 238±27% | ~60 s | 238 ± 27.5% | 200 nM
